Laboratory results: patent US20240207267A1, “(R)-Glutarimide CRBN Ligands and Methods of Use” (BeiGene Switzerland GmbH, priority 2021, published 2024)

Assays:
CRBN&DDB1 protein = CRBN&DDB1 protein (Homo sapiens (Human), UniProt Q96SW2); test: CRBN&DDB1 HTRF (TR-FRET) assay, blocking binding of biotin labeled thalidomide; conditions: CRBN&DDB1 protein (His Tag), 30 nM biotin labeled thalidomide
Procedure: Biochemical potency of compound was determined by using CRBN& DDB1 protein (His Tag). Compounds were tested for blocking the binding of CRBN&DDB1 protein (CRBN, aa 40-442, DDB1, 1-1140, Viva Biotech) with biotin labeled thalidomide in an assay based on the time-resolved fluorescence-resonance energy transfer (TR-FRET) methodology. The assay was carried out in 384-well low volume black plates in a reaction mixture containing CRBN& DDB1 protein, 30 nM biotin labeled thalidomide and 0-10 μM compound in buffer containing 50 mM HEPES pH7.5, 50 mM NaCl, 0.01% BSA, 1 mM DTT and 0.015% Brij-35. The protein was preincubated with compound for 60 minutes at room temperature and biotin labeled thalidomide was added to plate. After further incubation at room temperature for 60 minutes detection reagents Mab Anti-6His Eu cryptate Gold (Cisbio, Cat #61HI2KLB) and Streptavidin-XL665 (Cisbio, Cat #610SAXLG) were added to plate. Plates were sealed and incubated at room temperature for 1 hour, and the TR-FRET signals (ex337 nm, em665 nm/620 nm) were recorded on a PHERAstar FSX plate reader (BMG Labtech). The inhibition percentage of CRBN& DDB1 protein interaction with biotin labeled thalidomide in presence of increasing concentrations of compounds was calculated based on the ratio of fluorescence at 665 nm to that at 620 nm. IC50 was derived from fitting the dose-response % inhibition data to the four-parameter logistic model by Dotmatics.
Four-parameter logistic equation: Y=Bottom+(Top−Bottom)/(1+10^((LogIC50−X) *HillSlope)). While X is Log of compound concentration. Y is % inhibition at X. Bottom is the bottom of the curve effect. Top is the top of the curve effect. HillSlope is the hill slope factor.

[1] = test system: EGFR Del19/T790M/C797S (H1975-clone #28 cells); test: EGFR degradation HTRF assay in H1975-clone #28 cells; type: cell-based; conditions: H1975-clone #28(Del19/T790M/C797S) cells, 16 h treatment, Table 2; for DC50: read-out: H1975 # 28 DTC DC50; for H1975 # 28 DTC Dmax: maximum percentage of degradation
Procedure: H1975-clone #28(Del19/T790M/C797S) was stably expressed in H1975 cell lines (from ATCC) by lentivirus-mediated over-expression. The EGFR over-expressed cells then underwent gene knockout, in which the EGFR targeting sgRNA was designed to only target the endogenous EGFR copies and preserve the exogenous EGFR copies. Followed by the gene knockout, the edited H1975 cells were seeded in 96 well plates at the concentration of […], cultured for about 2 weeks to allow single clones formation. The formed clones were screened by DNA sequencing and whole exon sequencing analysis for the desired edition. H1975-clone #28 was finally confirmed as homozygous Del19/T790M/C797S EGFR clone
(§1) BaF3-LTC(L858R/T790M/C797S) and BaF3-DTC(Del19/T790M/C797S) cells are treated with compounds diluted in 0.2% DMSO cell culture medium and incubate for 16 h, 37° C., 5% CO2, H1975- #28 cells are treated with compounds diluted in 0.2% DMSO cell culture medium on day 2, incubate for 16 h, 37° C., 5% CO2. the final concentration of compounds in all assay is start with 10 uM, 5-fold dilution, total 8 doses were included.
(§2) After 16 h treatment, add HTRF lysis buffer to each well; seal the plate and incubate 1 hour at room temperature on a plate shaker; Once the cells are lysed, 16 μL of cell lysate are transferred to a PE 384-well HTRF detection plate; 4 μL of pre-mixed HTRF antibodies are added to each well; Cover the plate with a plate sealer, spin 1000 rpm for 1 min, Incubate overnight at room temperature; Read on BMG PheraStar with HTRF protocol (337 nm-665 nm-620 nm).
(§3) The IC50 (DC50) value of a compound can be obtained by fitting the following equation
(§4) Y=Bottom+(TOP−Bottom)/(1+((IC50/X)^hillslope))
(§5) Wherein, X and Y are known values, and IC50, Hillslope, Top and Bottom are the parameters obtained by fitting with software. Y is the inhibition percentage (calculated from the equation), X is the concentration of the compound; IC50 is the concentration of the compound when the 50% inhibition is reached. The smaller the IC50 value is, the stronger the inhibitory ability of the compound is. Vice versa, the higher the IC50 value is, the weaker the ability the inhibitory ability of the compound is; Hillslope represents the slope of the fitted curve, generally around 1*; Bottom represents the minimum value of the curve obtained by data fitting, which is generally 0%±20%; Top represents the maximum value of the curve obtained by data fitting, which is generally 100%±20%. The experimental data were fitted by calculating and analyzing with Dotmatics data analysis software.

[2] = biological target: EGFR L858R/T790M/C797S (BaF3-LTC cells) (Homo sapiens (Human), UniProt P00533, C797S/L858R/T790M); test: EGFR degradation HTRF assay in BaF3-LTC cells; type: cell-based; conditions: 16 h treatment; for DC50: Table 2, read-out: BaF3-LTC DC50; for Dmax: maximum percentage of degradation, Table 2, read-out: BaF3-LTC Dmax
Procedure: as §1, §2, §3, §4, §5

EGFR L858R/T790M/C797S (BaF3-LTC cells), sequence (P00533 25-1210 T790M/C797S/L858R): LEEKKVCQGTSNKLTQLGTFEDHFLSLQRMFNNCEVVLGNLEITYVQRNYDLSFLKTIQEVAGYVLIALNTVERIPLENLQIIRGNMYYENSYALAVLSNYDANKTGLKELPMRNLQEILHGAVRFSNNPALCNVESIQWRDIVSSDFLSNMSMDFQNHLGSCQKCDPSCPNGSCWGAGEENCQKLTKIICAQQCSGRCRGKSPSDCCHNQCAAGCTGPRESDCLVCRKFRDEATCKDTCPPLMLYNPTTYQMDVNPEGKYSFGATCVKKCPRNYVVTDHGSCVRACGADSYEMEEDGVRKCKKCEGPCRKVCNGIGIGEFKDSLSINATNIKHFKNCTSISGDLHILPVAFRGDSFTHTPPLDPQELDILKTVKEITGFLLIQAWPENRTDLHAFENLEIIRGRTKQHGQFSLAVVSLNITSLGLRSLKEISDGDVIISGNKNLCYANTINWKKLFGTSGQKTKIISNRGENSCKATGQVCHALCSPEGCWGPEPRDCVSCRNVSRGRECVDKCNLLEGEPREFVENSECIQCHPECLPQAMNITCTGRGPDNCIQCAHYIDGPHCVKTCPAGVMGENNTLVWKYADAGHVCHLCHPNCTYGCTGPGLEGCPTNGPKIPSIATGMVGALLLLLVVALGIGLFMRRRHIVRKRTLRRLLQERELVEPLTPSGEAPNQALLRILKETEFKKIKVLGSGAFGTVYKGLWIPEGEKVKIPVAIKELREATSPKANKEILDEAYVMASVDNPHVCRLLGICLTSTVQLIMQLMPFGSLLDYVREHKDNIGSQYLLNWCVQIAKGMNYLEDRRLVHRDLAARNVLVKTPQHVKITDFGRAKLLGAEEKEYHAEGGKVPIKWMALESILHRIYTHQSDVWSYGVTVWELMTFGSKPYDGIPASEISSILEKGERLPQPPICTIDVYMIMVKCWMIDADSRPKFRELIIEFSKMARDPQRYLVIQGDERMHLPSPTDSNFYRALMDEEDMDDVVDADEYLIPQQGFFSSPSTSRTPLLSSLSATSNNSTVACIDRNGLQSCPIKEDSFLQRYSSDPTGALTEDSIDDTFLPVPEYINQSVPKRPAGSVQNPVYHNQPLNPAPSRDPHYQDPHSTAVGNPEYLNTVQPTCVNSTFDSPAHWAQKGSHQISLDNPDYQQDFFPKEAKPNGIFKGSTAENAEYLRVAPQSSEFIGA
CRBN&DDB1 protein, sequence (Q96SW2 40-442): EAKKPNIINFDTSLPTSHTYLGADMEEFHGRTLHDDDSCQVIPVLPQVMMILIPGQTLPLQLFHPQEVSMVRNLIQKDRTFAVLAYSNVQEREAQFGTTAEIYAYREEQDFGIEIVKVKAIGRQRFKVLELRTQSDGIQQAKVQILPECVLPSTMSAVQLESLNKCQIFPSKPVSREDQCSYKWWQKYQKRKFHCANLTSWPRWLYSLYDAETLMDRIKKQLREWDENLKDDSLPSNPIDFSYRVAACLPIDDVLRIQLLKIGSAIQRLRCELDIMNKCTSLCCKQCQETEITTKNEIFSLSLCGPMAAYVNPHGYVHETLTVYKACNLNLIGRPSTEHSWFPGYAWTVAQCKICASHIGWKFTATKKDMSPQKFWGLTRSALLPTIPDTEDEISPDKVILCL
CRBN&DDB1 protein, sequence (Q16531 whole entry partner, the tested form may be a part): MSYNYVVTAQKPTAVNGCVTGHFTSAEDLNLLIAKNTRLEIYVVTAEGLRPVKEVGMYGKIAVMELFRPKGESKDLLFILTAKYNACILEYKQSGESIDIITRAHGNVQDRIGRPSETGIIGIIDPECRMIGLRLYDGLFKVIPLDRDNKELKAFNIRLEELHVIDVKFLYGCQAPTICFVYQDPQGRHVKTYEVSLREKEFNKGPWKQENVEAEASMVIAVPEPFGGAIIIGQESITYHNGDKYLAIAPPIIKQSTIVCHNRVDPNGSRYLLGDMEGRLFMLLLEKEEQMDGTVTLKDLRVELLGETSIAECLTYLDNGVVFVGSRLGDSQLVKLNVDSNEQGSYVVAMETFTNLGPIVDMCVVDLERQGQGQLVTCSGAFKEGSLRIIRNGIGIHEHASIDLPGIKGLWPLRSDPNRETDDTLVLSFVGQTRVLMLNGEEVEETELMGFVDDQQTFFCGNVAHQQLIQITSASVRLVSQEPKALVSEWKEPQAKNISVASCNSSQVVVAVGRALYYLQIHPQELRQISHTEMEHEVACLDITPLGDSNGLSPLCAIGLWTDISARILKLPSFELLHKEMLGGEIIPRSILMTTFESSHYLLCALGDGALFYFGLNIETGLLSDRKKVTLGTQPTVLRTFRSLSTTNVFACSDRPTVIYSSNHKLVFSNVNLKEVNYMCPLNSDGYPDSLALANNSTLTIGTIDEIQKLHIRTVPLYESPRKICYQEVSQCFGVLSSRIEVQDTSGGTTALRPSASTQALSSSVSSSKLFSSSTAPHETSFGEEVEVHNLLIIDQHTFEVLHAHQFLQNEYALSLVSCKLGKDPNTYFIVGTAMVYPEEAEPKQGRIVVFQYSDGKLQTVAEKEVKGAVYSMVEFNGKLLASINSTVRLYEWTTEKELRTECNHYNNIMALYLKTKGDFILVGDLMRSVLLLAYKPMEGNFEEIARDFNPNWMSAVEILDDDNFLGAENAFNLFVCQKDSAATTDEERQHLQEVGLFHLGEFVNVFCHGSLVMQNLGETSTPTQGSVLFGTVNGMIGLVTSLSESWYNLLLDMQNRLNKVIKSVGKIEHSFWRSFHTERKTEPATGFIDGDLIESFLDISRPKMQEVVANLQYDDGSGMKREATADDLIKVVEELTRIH

IC50 (CRBN&DDB1 protein)	DC50 [1]	DC50 [2]	Dmax [2]	Compound	H1975 # 28 DTC Dmax [1]
0.406 µM	–	–	–	CCO/C=C/c1cc(F)c([C@@H]2CCC(=O)NC2=O)c(F)c1 [Example 2, (S,E)-3-(4-(2-ethoxyvinyl)-2,6-difluorophenyl)piperidine-2,6-dione]	–
0.026 µM	–	–	–	O=C1CC[C@H](c2c(F)cc(N3CC[C@@H](C(=O)O)C3)cc2F)C(=O)N1 [Example 5, (R)-1-(4-((R)-2,6-dioxopiperidin-3-yl)-3,5-difluorophenyl)pyrrolidine-3-carboxylic acid]	–
1.07 µM	–	–	–	O=C1CC[C@@H](c2c(F)cc(N3CC[C@@H](C(=O)O)C3)cc2F)C(=O)N1 [Example 6, (R)-1-(4-((S)-2,6-dioxopiperidin-3-yl)-3,5-difluorophenyl)pyrrolidine-3-carboxylic acid]	–
0.022 µM	–	–	–	O=C1CC[C@H](c2c(F)cc(N3CC[C@@H](CO)C3)cc2F)C(=O)N1 [Example 7, (R)-3-(2,6-difluoro-4-((R)-3-(hydroxymethyl)pyrrolidin-1-yl)phenyl)piperidine-2,6-dione]	–
0.064 µM	–	–	–	O=C1CCC(c2c(F)cc(N3CC(CO)C3)cc2F)C(=O)N1 (stereo not drawn) [Example 9, 3-(2,6-difluoro-4-(3-(hydroxymethyl)azetidin-1-yl)phenyl)piperidine-2,6-dione]	–
0.178 µM	–	–	–	O=C1CCC(c2ccc(N3CC[C@@H](C(=O)O)C3)cc2)C(=O)N1 (stereo partly drawn) [Example 12, (3R)-1-(4-(2,6-dioxopiperidin-3-yl)phenyl)pyrrolidine-3-carboxylic acid]	–
0.027 µM	–	–	–	CCO/C=C/c1cc(F)c([C@H]2CCC(=O)NC2=O)c(F)c1 [Example 13, (R,E)-3-(4-(2-ethoxyvinyl)-2,6-difluorophenyl)piperidine-2,6-dione]	–
–	> 10 µM	0.09 µM	69%	CCc1ccc2c(P(C)(C)=O)c(Nc3nc(Nc4cc(CC)c(N5CCC(N6CCN(CCc7cc(F)c([C@@H]8CCC(=O)NC8=O)c(F)c7)CC6)CC5)cc4OC)ncc3Br)ccc2n1 [Example 20, (S)-3-(4-(2-(4-(1-(4-((5-bromo-4-((5-(dimethylphosphoryl)-2-ethylquinolin-6-yl)amino)pyrimidin-2-yl)amino)-2-ethyl-5-methoxyphenyl)piperidin-4-yl)piperazin-1-yl)ethyl)-2,6-difluorophenyl)piperidine-2,6-dione]	19.09%
–	0.00078 µM	0.00677 µM	–	CCc1ccc2c(P(C)(C)=O)c(Nc3nc(Nc4cc(CC)c(N5CCC(N6CCN(CCc7cc(F)c([C@H]8CCC(=O)NC8=O)c(F)c7)CC6)CC5)cc4OC)ncc3Br)ccc2n1 [Example 21, (R)-3-(4-(2-(4-(1-(4-((5-bromo-4-((5-(dimethylphosphoryl)-2-ethylquinolin-6-yl)amino)pyrimidin-2-yl)amino)-2-ethyl-5-methoxyphenyl)piperidin-4-yl)piperazin-1-yl)ethyl)-2,6-difluorophenyl)piperidine-2,6-dione]	89.6%
–	0.00117 µM	0.00523 µM	–	CCc1cc(Nc2ncc(Br)c(Nc3ccc4nc(C)ccc4c3P(C)(C)=O)n2)c(OC)cc1N1CCC(N2CCN(C(=O)[C@@H]3CCN(c4cc(F)c([C@H]5CCC(=O)NC5=O)c(F)c4)C3)CC2)CC1 [Example 22, (R)-3-(4-((R)-3-(4-(1-(4-((5-bromo-4-((5-(dimethylphosphoryl)-2-methylquinolin-6-yl)amino)pyrimidin-2-yl)amino)-2-ethyl-5-methoxyphenyl)piperidin-4-yl)piperazine-1-carbonyl)pyrrolidin-1-yl)-2,6-difluorophenyl)piperidine-2,6-dione]	84.8%
–	0.00137 µM	0.00899 µM	–	CCc1ccc2c(P(C)(C)=O)c(Nc3nc(Nc4cc(CC)c(N5CCC(N6CCN(C(=O)[C@@H]7CCN(c8cc(F)c([C@H]9CCC(=O)NC9=O)c(F)c8)C7)CC6)CC5)cc4OC)ncc3Br)ccc2n1 [Example 24, (R)-3-(4-((R)-3-(4-(1-(4-((5-bromo-4-((5-(dimethylphosphoryl)-2-ethylquinolin-6-yl)amino)pyrimidin-2-yl)amino)-2-ethyl-5-methoxyphenyl)piperidin-4-yl)piperazine-1-carbonyl)pyrrolidin-1-yl)-2,6-difluorophenyl)piperidine-2,6-dione]	82.72%
–	> 10 µM	0.36 µM	57.2%	CCc1ccc2c(P(C)(C)=O)c(Nc3nc(Nc4cc(CC)c(N5CCC(N6CCN(C(=O)[C@@H]7CCN(c8cc(F)c([C@@H]9CCC(=O)NC9=O)c(F)c8)C7)CC6)CC5)cc4OC)ncc3Br)ccc2n1 [Example 25, (S)-3-(4-((R)-3-(4-(1-(4-((5-bromo-4-((5-(dimethylphosphoryl)-2-ethylquinolin-6-yl)amino)pyrimidin-2-yl)amino)-2-ethyl-5-methoxyphenyl)piperidin-4-yl)piperazine-1-carbonyl)pyrrolidin-1-yl)-2,6-difluorophenyl)piperidine-2,6-dione]	−8.4%
–	0.000851 µM	–	–	CCc1cc(Nc2ncc(Br)c(Nc3ccc4nc(C)ccc4c3P(C)(C)=O)n2)c(OC2CC2)cc1N1CCC(N2CCN(CCc3cc(F)c([C@H]4CCC(=O)NC4=O)c(F)c3)CC2)CC1 [Example 26, (R)-3-(4-(2-(4-(1-(4-((5-bromo-4-((5-(dimethylphosphoryl)-2-methylquinolin-6-yl)amino)pyrimidin-2-yl)amino)-5-cyclopropoxy-2-ethylphenyl)piperidin-4-yl)piperazin-1-yl)ethyl)-2,6-difluorophenyl)piperidine-2,6-dione]	86.08%
–	0.000595 µM	0.0078 µM	–	CCc1cc(Nc2ncc(Br)c(Nc3ccc4nc(C)ccc4c3P(C)(C)=O)n2)c(OC)cc1N1CCC(N2CCN(C(=O)[C@@H]3CCN(c4ccc([C@H]5CCC(=O)NC5=O)cc4)C3)CC2)CC1 [Example 28, (R)-3-(4-((R)-3-(4-(1-(4-((5-bromo-4-((5-(dimethylphosphoryl)-2-methylquinolin-6-yl)amino)pyrimidin-2-yl)amino)-2-ethyl-5-methoxyphenyl)piperidin-4-yl)piperazine-1-carbonyl)pyrrolidin-1-yl)phenyl)piperidine-2,6-dione]	62.25%
–	> 10 µM	0.0854 µM	77.1%	CCc1cc(Nc2ncc(Br)c(Nc3ccc4nc(C)ccc4c3P(C)(C)=O)n2)c(OC)cc1N1CCC(N2CCN(C(=O)[C@@H]3CCN(c4ccc([C@@H]5CCC(=O)NC5=O)cc4)C3)CC2)CC1 [Example 29, (S)-3-(4-((R)-3-(4-(1-(4-((5-bromo-4-((5-(dimethylphosphoryl)-2-methylquinolin-6-yl)amino)pyrimidin-2-yl)amino)-2-ethyl-5-methoxyphenyl)piperidin-4-yl)piperazine-1-carbonyl)pyrrolidin-1-yl)phenyl)piperidine-2,6-dione]	−4.12%
